Source: patent US20180333382A1, “PHARMACEUTICAL COMPOSITIONS COMPRISING DGLA AND USE OF SAME” (DS Biopharma Limited, priority 2017, published 2018)

System: patients with moderate to severe atopic dermatitis
Experiment: Phase II study of oral DS107G vs placebo: IGA, EASI, SCORAD, pruritus VAS, BSA, POEM, DLQI
Assay type: in vivo, human
Design: key to EASI, Actual, Median / EASI, Actual, Mean: EASI composite score, range 0-72
Conditions: for Percentage Change of BSA Levels From Baseline, Mean / Percentage Change of DLQI Scores From Baseline, Mean / Percentage Change of EASI Scores From Baseline, Mean / Percentage Change of IGA Scores From Baseline, Mean / Percentage Change of POEM Scores From Baseline, Mean / Percentage Change of SCORAD Levels From Baseline, Mean / Percentage Change of VAS Scores From Baseline, Mean: ITT Population
Protocol: A randomized, double-blind, placebo-controlled, phase II study was performed to assess the efficacy and safety of orally administered DS107G (DGLA) to patients with moderate to severe atopic dermatitis. The primary objective of the study was to compare the efficacy of orally administered DS107G capsules, versus placebo, in the treatment of adult patients with moderate to severe atopic dermatitis. The secondary objective was to assess the safety of orally administered DS107G capsules, versus placebo, in adult patients with moderate to severe atopic dermatitis. The primary study endpoint was the proportion of patients achieving an IGA (Investigator Global Assessment) of 0 (clear) or 1 (almost clear) and a decrease of at least 2 points in IGA at week 8. Secondary study endpoints included:
Approximately 100 patients with moderate to severe atopic dermatitis were included in this multicenter, double-blind, placebo controlled, phase IIa study. All subjects signed an informed consent and underwent screening for study eligibility. Subjects were randomized (1:1) at baseline visit to either receive oral DS107G 2 g or placebo, once daily for 8 weeks in a fasting state.
Subjects visited the clinic on 6 occasions: at screening, baseline, week 2, week 4, week 8 (end of treatment/early termination) and week 10 (follow-up). All subjects exited the study at the week 10 visit. The primary efficacy variable was the proportion of patients achieving an IGA of 0 (clear) or 1 (almost clear), and a decrease of at least 2 points in IGA at week 8. Secondary efficacy variables included: IGA at other visits, pruritus (obtained from the SCORAD visual analog scale), EASI, BSA, POEM, DLQI, SCORAD and TEWL (for selected sites only). Safety was assessed through adverse events, physical examination, vital signs and safety laboratory tests (including pregnancy tests for women of childbearing potential). Pharmacokinetic samples were obtained at Baseline (Day 0), week 4 and week 8 visits in order to measure total and free DGLA plasma trough levels. Separate plasma samples were retained for later analysis of total fatty acid profile and interleukin profile.
The EASI is a composite score ranging from 0-72 that takes into account the degree of erythema, induration/papulation, excoriation, and lichenification (each scored from 0 to 3 separately) for each of four body regions, with adjustment for the percent of BSA involved for each body region and for the proportion of the body region to the whole body. A detailed procedure of EASI score calculation is provided below.
SCORAD is calculated as follows: Six items (erythema, edema/papulation, oozing/crusts, excoriation, lichenification, and dryness) are selected to evaluate the AD severity. The intensity of each item is graded using a 4-point scale: • 0=No symptoms • 1=Mild • 2=Moderate • 3=Severe
Investigator's global assessment is determined as follows:
Body Surface Area (BSA). The overall BSA affected by AD will be evaluated (from 0 to 100%) at each visit. One patient's palm represents 1% of his/her total BSA. For all study visits, except at screening, the BSA of involved skin will be measured with the SCORAD measurement and evaluated as a separate endpoint.
The Patient-Oriented Eczema Measure (POEM) is determined using the following questionnaire:
The Dermatology Life Quality Index (DLQI) is determined using the following questionnaire:
Subjects who fulfilled all the inclusion and none of the exclusion criteria were accepted in the study. Each subject read and signed an informed consent form prior to any screening procedures being performed. This study involved a comparison of DS107G (DGLA) with placebo, administered orally once daily upon waking for a total duration of 8 weeks. Subjects were randomized to one of the two treatment groups in a 1:1 ratio:
The Investigator's Global Assessment (IGA) of Disease Severity was assessed at each visit. The IGA is a global assessment of the current state of the disease. […]

[1] = DS107 Phase 2a I.T.T. population, daily, 8 weeks
[2] = Table 9A: title Week 4, head Week 8/ET, n=34
[3] = Table 9A: title Week 4, head Week 8/ET, n=35
[4] = Week 8, ITT total population, N=51
[5] = Week 8, ITT, Moderate at baseline
[6] = Week 8, ITT, Very Severe/Severe at baseline
[7] = Week 8/ET, DS107G 2 g once daily, n=35
[8] = total study population, oral, once daily, 8 weeks

SMILES: CCCCC/C=C\C/C=C\C/C=C\CCCCCCC(=O)O [DS107G, Dihomo gamma linolenic acid]
- patients classified as Responders (IGA 0 or 1 at Week 8, 2-point decrease) (African America patients): 56%
- patients classified as Responders (IGA 0 or 1 at Week 8, 2-point decrease) (Caucasian patients): 7%
- BSA Change from Baseline [1]: −38%
- EASI Percentage Change from Baseline [1]: −46%
- EASI-50 (%) [1]: 57%
- EASI-75 (%) [1]: 37%
- IGA responder (%) [1]: 21%
- Pruritus Percentage Change from Baseline [1]: −41%
- Percentage Change of BSA Levels From Baseline, Mean (Week 2): −6.3%
- Percentage Change of DLQI Scores From Baseline, Mean (Week 2): −29.5%
- Percentage Change of EASI Scores From Baseline, Mean (Week 2): −15.0%
- Percentage Change of IGA Scores From Baseline, Mean (Week 2): −11.7%
- Percentage Change of POEM Scores From Baseline, Mean (Week 2): −30.2%
- Percentage Change of SCORAD Levels From Baseline, Mean (Week 2): −12.0%
- Percentage Change of VAS Scores From Baseline, Mean (Week 2): −20.9%
- Percentage Change of BSA Levels From Baseline, Mean (Week 4): −21.9%
- Percentage Change of DLQI Scores From Baseline, Mean (Week 4): −50.3%
- Percentage Change of EASI Scores From Baseline, Mean (Week 4): −37.7%
- Percentage Change of IGA Scores From Baseline, Mean (Week 4): −25.7%
- Percentage Change of POEM Scores From Baseline, Mean (Week 4): −41.8%
- Percentage Change of SCORAD Levels From Baseline, Mean (Week 4): −28.8%
- Percentage Change of VAS Scores From Baseline, Mean (Week 4): −39.5%
- Percentage Change of BSA Levels From Baseline, Mean (Week 8): −38.2%
- Percentage Change of DLQI Scores From Baseline, Mean (Week 8): −43.2%
- Percentage Change of EASI Scores From Baseline, Mean (Week 8): −45.6%
- Percentage Change of IGA Scores From Baseline, Mean (Week 8): −38.4%
- Percentage Change of POEM Scores From Baseline, Mean (Week 8): −37.2%
- Percentage Change of SCORAD Levels From Baseline, Mean (Week 8): −36.1%
- Percentage Change of VAS Scores From Baseline, Mean (Week 8): −41.0%
- Percentage Change of BSA Levels From Baseline, Mean (Week 10): −37.7%
- Percentage Change of DLQI Scores From Baseline, Mean (Week 10): −53.6%
- Percentage Change of EASI Scores From Baseline, Mean (Week 10): −49.5%
- Percentage Change of IGA Scores From Baseline, Mean (Week 10): −37.5%
- Percentage Change of POEM Scores From Baseline, Mean (Week 10): −43.4%
- Percentage Change of SCORAD Levels From Baseline, Mean (Week 10): −40.5%
- Percentage Change of VAS Scores From Baseline, Mean (Week 10): −44.2%
- primary end point (two point drop in IGA and end of treatment IGA of 0 or 1) vs placebo (ITT analysis, p=0.057): clinically significant trend
- visual analog scale of pruritus, Change from baseline, LSMEANS [2]: −2.1
- visual analog scale of pruritus, Change from baseline, Mean [2]: −2.8
- visual analog scale of pruritus, Change from baseline, Median [2]: −2.0
- visual analog scale of pruritus, Percent Change from Baseline, Mean [2]: −41.0%
- visual analog scale of pruritus, Percent Change from Baseline, Median [2]: −35.3%
- visual analog scale of pruritus, Actual, Mean [3]: 4.6
- visual analog scale of pruritus, Actual, Median [3]: 4.0
- visual analog scale of pruritus, Change from baseline, LSMEANS (Table 9B: Week 8/ET, n=34): −2.1
- visual analog scale of pruritus, Change from baseline, Mean (Table 9B: Week 8/ET, n=34): −2.8
- visual analog scale of pruritus, Change from baseline, Median (Table 9B: Week 8/ET, n=34): −2.0
- visual analog scale of pruritus, Percent Change from Baseline, Mean (Table 9B: Week 8/ET, n=34): −41.0%
- visual analog scale of pruritus, Percent Change from Baseline, Median (Table 9B: Week 8/ET, n=34): −35.3%
- visual analog scale of pruritus, Actual, Mean (Table 9B: Week 8/ET, n=35): 4.6
- visual analog scale of pruritus, Actual, Median (Table 9B: Week 8/ET, n=35): 4.0
- IGA score 0—Clear [4]: 4 ( 7.8) n (%)
- IGA score 1—Almost Clear [4]: 7 ( 13.7) n (%)
- IGA score 2—Mild [4]: 9 ( 17.6) n (%)
- IGA score 3—Moderate [4]: 10 ( 19.6) n (%)
- IGA score 4—Severe [4]: 4 ( 7.8) n (%)
- IGA score 5—Very Severe [4]: 1 ( 2.0) n (%)
- Non-Responders [4]: 37 ( 72.5) n (%)
- Responders (decrease of at least 2 points in IGA score at Week 8) [4]: 14 ( 27.5) n (%)
- IGA score 0—Clear [5]: 4 (13.8) n (%)
- IGA score 1—Almost Clear [5]: 4 (13.8) n (%)
- IGA score 2—Mild [5]: 6 (20.7) n (%)
- IGA score 3—Moderate [5]: 4 (13.8) n (%)
- IGA score 4—Severe [5]: 1 (3.4) n (%)
- IGA score 5—Very Severe [5]: 0 (0.0) n (%)
- Non-Responders [5]: 21 (72.4) n (%)
- Responders [5]: 8 (27.6) n (%)
- IGA score 0—Clear [6]: 0 (0.0) n (%)
- IGA score 1—Almost Clear [6]: 3 (13.6) n (%)
- IGA score 2—Mild [6]: 3 (13.6) n (%)
- IGA score 3—Moderate [6]: 6 (27.3) n (%)
- IGA score 4—Severe [6]: 3 (13.6) n (%)
- IGA score 5—Very Severe [6]: 1 (4.5) n (%)
- Non-Responders [6]: 16 (72.7) n (%)
- Responders [6]: 6 (27.3) n (%)
- EASI, Actual, Mean [7]: 9.3
- EASI, Actual, Median [7]: 7.4
- EASI, Change from baseline, LSMEANS (ANCOVA) [7]: −8.0
- EASI, Change from baseline, Mean [7]: −9.4
- EASI, Change from baseline, Median [7]: −8.0
- EASI, Percent Change from Baseline, Mean [7]: −45.6%
- EASI, Percent Change from Baseline, Median [7]: −62.7%
- SCORAD, Change from baseline, LSMEANS (Week 8/ET, n=34): −18.7
- SCORAD, Change from baseline, Mean (Week 8/ET, n=34): −21.1
- SCORAD, Change from baseline, Median (Week 8/ET, n=34): −21.2
- SCORAD, Percent Change from Baseline, Mean (Week 8/ET, n=34): −36.1%
- SCORAD, Percent Change from Baseline, Median (Week 8/ET, n=34): −43.4%
- SCORAD, Actual, Mean (Week 8/ET, n=35): 35.9
- SCORAD, Actual, Median (Week 8/ET, n=35): 28.6
- body surface area affected by atopic dermatitis, Actual, Mean (Week 8/ET, n=35): 17.6
- body surface area affected by atopic dermatitis, Actual, Median (Week 8/ET, n=35): 12.0
- body surface area affected by atopic dermatitis, Change from baseline, LSMEANS (Week 8/ET, n=35): −8.9
- body surface area affected by atopic dermatitis, Change from baseline, Mean (Week 8/ET, n=35): −9.6
- body surface area affected by atopic dermatitis, Change from baseline, Median (Week 8/ET, n=35): −8.0
- body surface area affected by atopic dermatitis, Percent Change from Baseline, Mean (Week 8/ET, n=35): −38.2%
- body surface area affected by atopic dermatitis, Percent Change from Baseline, Median (Week 8/ET, n=35): −50.0%
- response rate in subjects having low baseline eosinophil counts (in vivo): higher response rate
- primary end point (two point drop in IGA and end of treatment IGA of 0 or 1) vs placebo (moderate patient subgroup (n=67), p=0.036): statistically significant improvement
- EASI (% decrease) [8]: 46%
- IGA responders (%) [8]: 22%
- Pruritus delta (as measured by VAS) [8]: 41%
- Pruritus score decrease (as measured by VAS) [8]: c. (2.8)
- SCORAD (% decrease) [8]: 36%
- pruritus score [visual analog scale] vs placebo (within four weeks of dosing, p=0.015): statistically significant reduction of itch
